In ChEMBL document CHEMBL1201862, “PubChem BioAssay data set” (2004):
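Following 48 hours of exposure in 96-well plates, responses at five concentrations were used to interpolate endpoints linearly. GI50 = concentration required for 50% inhibition of growth.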 Active and inactive are the calls of the source. No stated cut-off is given here; in the data, active = GI50 up to about 1.1 µM and inactive = higher.

What was measured:
Experiment in all cases: inhibition of tumour cell growth, NCI panel, 48 h
[1] = system: 786-0
[2] = system: A549
[3] = system: ACHN
[4] = system: BT-549
[5] = system: CAKI-1
[6] = system: CCRF-CEM
[7] = system: COLO 205
[8] = system: DU-145
[9] = system: EKVX
[10] = system: HCC 2998
[11] = system: HCT-116
[12] = system: HCT-15
[13] = system: HOP-62
[14] = system: HT-29
[15] = system: IGROV-1
[16] = system: K562
[17] = system: KM12
[18] = system: LOX IMVI
[19] = system: M14
[20] = system: MCF7
[21] = system: MDA-MB-231
[22] = system: MDA-MB-435
[23] = system: MDA-N
[24] = system: MOLT-4
[25] = system: NCI-H226
[26] = system: NCI-H23
[27] = system: NCI-H460
[28] = system: NCI-H522
[29] = system: NCI/ADR-RES
[30] = system: OVCAR-3
[31] = system: OVCAR-4
[32] = system: OVCAR-5
[33] = system: PC-3
[34] = system: RXF 393
[35] = system: SF-268
[36] = system: SF-295
[37] = system: SK-MEL-28
[38] = system: SK-MEL-2
[39] = system: SK-MEL-5
[40] = system: SK-OV-3
[41] = system: SN12C
[42] = system: SNB-19
[43] = system: SNB-75
[44] = system: SR
[45] = system: SW-620
[46] = system: T47D
[47] = system: TK-10
[48] = system: U-251
[49] = system: UACC-257
[50] = system: UACC-62
[51] = system: UO-31
[52] = system: A498
[53] = system: HOP-92
[54] = system: Malme-3M
[55] = system: OVCAR-8
[56] = system: RPMI-8226
[57] = system: SF-539

Measured: GI50

CCC1(c2ccc(OC)c(OC)c2)CCN2C(=O)C(O)CC21 (stereo not drawn)
> 100 µM: [12]
inactive: [1] > 100 µM | [2] > 100 µM | [3] > 100 µM | [4] > 100 µM | [5] > 100 µM | [6] > 100 µM | [7] > 100 µM | [8] > 100 µM | [9] > 100 µM | [10] > 100 µM | [11] > 100 µM | [13] > 100 µM | [14] > 100 µM | [15] > 100 µM | [16] > 100 µM | [17] > 100 µM | [18] > 100 µM | [19] > 100 µM | [20] > 100 µM | [21] > 100 µM | [22] > 100 µM | [23] > 100 µM | [24] > 100 µM | [25] > 100 µM | [26] > 100 µM | [27] > 100 µM | [28] > 100 µM | [29] > 100 µM | [30] > 100 µM | [31] > 100 µM | [32] > 100 µM | [33] > 100 µM | [34] > 100 µM | [35] > 100 µM | [36] > 100 µM | [37] > 100 µM | [38] > 100 µM | [39] > 100 µM | [40] > 100 µM | [41] > 100 µM | [42] > 100 µM | [43] > 100 µM | [44] > 100 µM | [45] > 100 µM | [46] > 100 µM | [47] > 100 µM | [48] > 100 µM | [49] > 100 µM | [50] > 100 µM | [51] > 100 µM

CCOC(=O)c1nc2cc(C(F)(F)F)ccc2nc1Nc1ccc(F)cc1
inactive: [1] > 100 µM | [52] 28.6 µM | [2] 18 µM | [4] 25.9 µM | [5] > 100 µM | [6] 19.5 µM | [7] 97.3 µM | [8] > 100 µM | [9] 68.2 µM | [10] 19.6 µM | [11] 96.8 µM | [13] 96.6 µM | [53] 10.8 µM | [14] 97.9 µM | [15] 34.8 µM | [16] 13.3 µM | [17] > 100 µM | [18] > 100 µM | [19] 49.4 µM | [20] 85.5 µM | [21] > 100 µM | [22] > 100 µM | [23] > 100 µM | [24] > 10 µM | [54] > 100 µM | [25] 41.1 µM | [26] 74.1 µM | [27] 18.2 µM | [29] 72.1 µM | [30] 44.8 µM | [31] 23.6 µM | [32] > 100 µM | [55] 39 µM | [33] 32.8 µM | [56] 6.21 µM | [34] 53.5 µM | [35] > 100 µM | [36] 47.2 µM | [57] 19.5 µM | [37] > 100 µM | [38] > 100 µM | [39] 47.8 µM | [40] 94.4 µM | [41] > 100 µM | [43] 58.2 µM | [45] 74.1 µM | [46] > 100 µM | [47] 73.5 µM | [48] 24.5 µM | [49] > 100 µM | [50] 25.5 µM
37.4 µM: [12]
